The test concerns the target Free fatty acid receptor 1 (Homo sapiens, UniProt O14842). Description: Agonist activity at recombinant human GPR40 expressed in HEK293 cells assessed as increase in IP1 accumulation measured after 60 mins by HTRF assay. A general note: In TR-FRET formats the signal depends on donor and acceptor labels being close together.

1 molecule from BindingDB's records for doi:10.1021/acsmedchemlett.8b00149 (Merck, 2018) can be followed below.

Sequence of Free fatty acid receptor 1 (O14842 whole entry): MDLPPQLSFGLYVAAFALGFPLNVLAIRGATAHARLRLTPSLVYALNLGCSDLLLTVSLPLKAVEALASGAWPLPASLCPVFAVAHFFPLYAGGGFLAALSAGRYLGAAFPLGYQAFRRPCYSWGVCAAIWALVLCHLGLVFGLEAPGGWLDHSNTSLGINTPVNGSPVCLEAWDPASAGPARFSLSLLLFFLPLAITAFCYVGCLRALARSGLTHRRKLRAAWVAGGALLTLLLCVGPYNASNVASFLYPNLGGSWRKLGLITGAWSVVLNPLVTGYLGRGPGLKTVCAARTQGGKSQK

Take `COc1cc(-c2cnc(C3CCc4ccc([C@H](C5CC5)[C@H](C)C(=O)O)cc4O3)c(F)c2)c(F)cn1` (stereo partly specified): the half-maximal effective concentration (EC50) was found to be 1.6 nM.

Broadly, the EC50 is the midpoint of the concentration-response curve.
